1 substance from US8192753B2, “pH-sensitive cationic lipids, and liposomes and nanocapsules containing the same” (Marina Biotech, Inc., priority 2002, dated 2012) can be followed below.

The nature of the series: Determination of pKa values by titration in 0.5% TRITON-X 100. As to conditions: lipid in 0.5% TRITON-X 100 in water, titrated with 20 mM NaOH from pH 3.0.

The term pKa denotes the pH at which an ionisable group is half protonated.

Regarding “4-(2-aminoethyl)morpholine-di-palmitoylglycerol succinate [#60]”, the pKa was 7.2.
